Laboratory results as given in PubChem BioAssay AID1259407 (Chemical Carcinogenesis Research Information System (CCRIS), 2018).
Activity calls are given as the source filed them. The rule behind the calls is not given here.

Tested on: CCRIS mutagenicity, Ames/micronucleus/aberration tests
Test: CCRIS mutagenicity studies
[1] = Test System: AMES SALMONELLA TYPHIMURIUM, Strain/Indicator: TA100, Metabolic Activation: RAT, LIVER, S-9, AROCLOR 1254, Method: STANDARD PLATE
[2] = Test System: AMES SALMONELLA TYPHIMURIUM, Strain/Indicator: TA98, Metabolic Activation: RAT, LIVER, S-9, AROCLOR 1254, Method: STANDARD PLATE

c1ccc2cc(Nc3ccc(Nc4ccc5ccccc5c4)cc3)ccc2c1
mutagenic call (End Point: IN VITRO CHROMOSOMAL ABERRATIONS, Test System: CHINESE HAMSTER LUNG CELLS (CHL), Metabolic Activation: NONE): active; positive (structural changes)
mutagenic call (End Point: IN VITRO CHROMOSOMAL ABERRATIONS, Test System: CHINESE HAMSTER OVARY CELLS (CHO), Metabolic Activation: NONE): inactive; negative
mutagenic call (End Point: IN VITRO CHROMOSOMAL ABERRATIONS, Test System: CHINESE HAMSTER OVARY CELLS (CHO), Metabolic Activation: RAT, LIVER, S-9, AROCLOR 1254): inactive; negative
mutagenic call (End Point: IN VITRO CHROMOSOMAL ABERRATIONS, Test System: CHL CELLS, Metabolic Activation: S-9): active; positive (structural changes); weak response
mutagenic call (End Point: IN VITRO CHROMOSOMAL ABERRATIONS, Test System: CHO CELLS, Metabolic Activation: S-9): active; positive (structural changes)
mutagenic call (Test System: AMES SALMONELLA TYPHIMURIUM, Strain/Indicator: TA98, Metabolic Activation: HAMSTER, LIVER, S-9, AROCLOR 1254 (30%), Method: PREINCUBATION): active; positive
mutagenic call (Test System: AMES SALMONELLA TYPHIMURIUM, Strain/Indicator: TA98, Metabolic Activation: NONE, Method: PREINCUBATION): inactive; negative
mutagenic call (Test System: AMES SALMONELLA TYPHIMURIUM, Strain/Indicator: TA98, Metabolic Activation: RAT LIVER S-9, PHENOBARBITAL AND BETA-NAPHTHOFLAVONE, Method: PREINCUBATION): inactive; negative
mutagenic call (Test System: AMES SALMONELLA TYPHIMURIUM, Strain/Indicator: TA98, Metabolic Activation: RAT, LIVER, S-9, AROCLOR 1254 (30%), Method: PREINCUBATION): inactive; negative
mutagenic call (Test System: AMES SALMONELLA TYPHIMURIUM, Strain/Indicator: TA100, Metabolic Activation: HAMSTER, LIVER, S-9, AROCLOR 1254 (30%), Method: PREINCUBATION): inactive; negative
mutagenic call (Test System: AMES SALMONELLA TYPHIMURIUM, Strain/Indicator: TA100, Metabolic Activation: NONE, Method: PREINCUBATION): inactive; negative
mutagenic call (Test System: AMES SALMONELLA TYPHIMURIUM, Strain/Indicator: TA100, Metabolic Activation: RAT LIVER S-9, PHENOBARBITAL AND BETA-NAPHTHOFLAVONE, Method: PREINCUBATION): inactive; negative
mutagenic call (Test System: AMES SALMONELLA TYPHIMURIUM, Strain/Indicator: TA100, Metabolic Activation: RAT, LIVER, S-9, AROCLOR 1254 (30%), Method: PREINCUBATION): inactive; negative
mutagenic call (Test System: AMES SALMONELLA TYPHIMURIUM, Strain/Indicator: TA1535, Metabolic Activation: NONE, Method: PREINCUBATION): inactive; negative
mutagenic call (Test System: AMES SALMONELLA TYPHIMURIUM, Strain/Indicator: TA1535, Metabolic Activation: RAT LIVER S-9, PHENOBARBITAL AND BETA-NAPHTHOFLAVONE, Method: PREINCUBATION): inactive; negative
mutagenic call (Test System: AMES SALMONELLA TYPHIMURIUM, Strain/Indicator: TA1537, Metabolic Activation: NONE, Method: PREINCUBATION): inactive; negative
mutagenic call (Test System: AMES SALMONELLA TYPHIMURIUM, Strain/Indicator: TA1537, Metabolic Activation: RAT LIVER S-9, PHENOBARBITAL AND BETA-NAPHTHOFLAVONE, Method: PREINCUBATION): inactive; negative
mutagenic call (Test System: AMES SALMONELLA TYPHIMURIUM, Strain/Indicator: TA1538, Metabolic Activation: NONE, Method: PREINCUBATION): inactive; negative
mutagenic call (Test System: AMES SALMONELLA TYPHIMURIUM, Strain/Indicator: TA1538, Metabolic Activation: RAT LIVER S-9, PHENOBARBITAL AND BETA-NAPHTHOFLAVONE, Method: PREINCUBATION): inactive; negative
mutagenic call (Test System: E.COLI, Strain/Indicator: WP2UVRA, Metabolic Activation: NONE, Method: PREINCUBATION): inactive; negative
mutagenic call (Test System: E.COLI, Strain/Indicator: WP2UVRA, Metabolic Activation: RAT LIVER S-9, PHENOBARBITAL AND BETA-NAPHTHOFLAVONE, Method: PREINCUBATION): inactive; negative

Cc1cc2[nH]c3cc(C)c4ccccc4c3c2c2ccccc12
mutagenic call [1]: active; positive

CC1(C)CC[C@]2(C(=O)O)CC[C@]3(C)C(=CC[C@@H]4[C@@]5(C)C[C@H](O)[C@H](O)[C@@](C)(C(=O)O)[C@@H]5CC[C@]43C)[C@@H]2C1
mutagenic call (Test System: AMES SALMONELLA TYPHIMURIUM, Strain/Indicator: TA97, Metabolic Activation: NONE, Method: STANDARD PLATE): inactive; negative
mutagenic call (Test System: AMES SALMONELLA TYPHIMURIUM, Strain/Indicator: TA97, Metabolic Activation: RAT, LIVER, S-9, AROCLOR 1254, Method: STANDARD PLATE): inactive; negative
mutagenic call (Test System: AMES SALMONELLA TYPHIMURIUM, Strain/Indicator: TA98, Metabolic Activation: NONE, Method: STANDARD PLATE): inactive; negative
mutagenic call [2]: inactive; negative
mutagenic call (Test System: AMES SALMONELLA TYPHIMURIUM, Strain/Indicator: TA100, Metabolic Activation: NONE, Method: STANDARD PLATE): inactive; negative
mutagenic call [1]: inactive; negative
mutagenic call (Test System: AMES SALMONELLA TYPHIMURIUM, Strain/Indicator: TA102, Metabolic Activation: NONE, Method: STANDARD PLATE): inactive; negative
mutagenic call (Test System: AMES SALMONELLA TYPHIMURIUM, Strain/Indicator: TA102, Metabolic Activation: RAT, LIVER, S-9, AROCLOR 1254, Method: STANDARD PLATE): inactive; negative

Cc1cccc2c1-c1ccccc1C2C (centres undefined)
mutagenic call [2]: active; positive
mutagenic call [1]: active; positive

CCCCN(COC(C)=O)N=O
mutagenic call (Test System: UDS RAT UROTHELIAL CELLS, Strain/Indicator: THY INCORP, Metabolic Activation: NONE): active; positive

CCC(=O)N=c1sn(C(=O)CC)c2ccc([N+](=O)[O-])cc12
mutagenic call (Test System: AMES SALMONELLA TYPHIMURIUM, Strain/Indicator: TA100, Metabolic Activation: S-9, Method: STANDARD PLATE): active; positive
